Results from US20080299062A1, “Use of Oxocarboxylic Acids-Containing Combinations for Deodorization” (priority 2004, published 2008).

Experiments:
[1] = Odor of permanently waved hair strands, rinse-off method (base: hair-cure agent); conditions: for Odor rating vs blank, Day 1, pH 2-3 / Odor rating vs blank, Day 1, pH 4-5 / Odor rating vs blank, Day 2, pH 2-3 / Odor rating vs blank, Day 2, pH 4-5 / Odor rating vs blank, Day 3, pH 2-3 / Odor rating vs blank, Day 3, pH 4-5 / Odor rating vs blank, Day 4, pH 2-3 / Odor rating vs blank, Day 4, pH 4-5: rinse-off hair-cure agent, 5-min contact, table head 0.01 wt. % (text b103: 0.1 wt. %), each symbol = one test strand; for Odor rating vs blank, Day 1, pH 2-3 / Odor rating vs blank, Day 1, pH 4-5: Day 1, wet; for Odor rating vs blank, Day 2, pH 2-3 / Odor rating vs blank, Day 2, pH 4-5: Day 2, dry; for Odor rating vs blank, Day 3, pH 2-3 / Odor rating vs blank, Day 3, pH 4-5: Day 3, wet; for Odor rating vs blank, Day 4, pH 2-3 / Odor rating vs blank, Day 4, pH 4-5: Day 4, dry
[2] = Odor of permanently waved hair strands, leave-on method (base: conditioner); conditions: for Odor rating vs blank, Day 1, pH 2-3 / Odor rating vs blank, Day 1, pH 4-5 / Odor rating vs blank, Day 2, pH 2-3 / Odor rating vs blank, Day 2, pH 4-5 / Odor rating vs blank, Day 3, pH 2-3 / Odor rating vs blank, Day 3, pH 4-5 / Odor rating vs blank, Day 4, pH 2-3 / Odor rating vs blank, Day 4, pH 4-5: test substance 0.01 wt. %; for Odor rating vs blank, Day 1, pH 2-3 / Odor rating vs blank, Day 1, pH 4-5: Day 1, wet; for Odor rating vs blank, Day 1, pH 2-3 / Odor rating vs blank, Day 2, pH 2-3 / Odor rating vs blank, Day 3, pH 2-3 / Odor rating vs blank, Day 4, pH 2-3: pH 2-3, each symbol = one test strand; for Odor rating vs blank, Day 1, pH 4-5 / Odor rating vs blank, Day 2, pH 4-5 / Odor rating vs blank, Day 3, pH 4-5 / Odor rating vs blank, Day 4, pH 4-5: pH 4-5, each symbol = one test strand; for Odor rating vs blank, Day 2, pH 2-3 / Odor rating vs blank, Day 2, pH 4-5: Day 2, dry; for Odor rating vs blank, Day 3, pH 2-3 / Odor rating vs blank, Day 3, pH 4-5: Day 3, wet; for Odor rating vs blank, Day 4, pH 2-3 / Odor rating vs blank, Day 4, pH 4-5: Day 4, dry; for odor-reducing action (efficacy), in words: pH 2-3 and pH 4-5, summary of Table 1
Description: The test substances were tested on hair that had been freshly permanently waved. To this end, hair braids were cut into 2.5-cm pieces, bleached for 30 minutes and washed with perfume-free shampoo. To obtain fully odorless strands, the strands were then dipped three times into a mixture of isopropanol 25%/ethanol 25%/water 50%. The hair was kept for 24 hours in a conditioning room (20° C. at 85% relative humidity) and then cut to a weight of 2 g. This was followed by an odor test. Ten strands per post-treatment agent to be tested were wound onto rollers (diameter: 13 mm) and kept overnight in the conditioning room (20° C. at 85% relative humidity). The next morning, these strands were subjected to permanent waving.
Ten rollers holding 2 g of hair each were placed in a crystallizing dish and covered twice with 20 g of a commercial wave lotion, the rollers being turned over after the first 20 g to ensure uniform distribution. The rollers were then placed in a drier at 40° C. for 15 min, after which they were rinsed with water for 5 minutes namely for 2 min under running city water and for an additional 3 min by immersing them in water. The hair was then dabbed dry with a paper napkin. Afterward, the fixation was carried out with the aid of a commercial foam fixative. To this end, the rollers were immersed for 3 min in 500 mL of fixing solution. Excess fixing solution was then poured off, and the rollers were allowed to stand for an additional 7 minutes. They were then again rinsed with water for 5 min (see above) and dabbed dry with a paper napkin. Finally, the hair was detached from the roller and placed in a drier at 40° C. for 60 minutes.
To test the efficacy of the compounds as permanent wave post-treatment agents, the zinc salts and the corresponding zinc-free acids alone were incorporated at two different pH values into common cosmetic product bases. Zinc citrate (trizinc dicitrate) made soluble with a slight excess of citric acid was tested as the reference substance for a zinc salt without the odor-influencing counterion. The oxocarboxylic acids were used both as the sodium salts and in the form of their zinc salts. The pH values were then adjusted with citric acid or NaOH.
In the following example, 0.5 mL of a leave-on conditioner was massaged into the freshly permanently waved hair (2 g in each case), and after a contact time of 10 min the odor was evaluated by five test subjects (Table 1). In each case, the odor evaluation was performed on 3 test strands. The average values of the evaluation results are tabulated.
Each symbol stands for one test strand. • ◯=odor indistinguishable from that of blank • +=odor better than that of blank • ++=odor appreciably better than that of blank/odorless

[3] = Various odor tests carried out on permanently waved hair (general statements); conditions: sulfur odor of permanently waved hair; general statement

| Molecule | Odor rating vs blank, Day 1, pH 2-3 [1] | Odor rating vs blank, Day 1, pH 4-5 [1] | Odor rating vs blank, Day 2, pH 2-3 [1] | Odor rating vs blank, Day 2, pH 4-5 [1] | Odor rating vs blank, Day 3, pH 2-3 [1] | Odor rating vs blank, Day 3, pH 4-5 [1] | Odor rating vs blank, Day 4, pH 2-3 [1] | Odor rating vs blank, Day 4, pH 4-5 [1] | Odor rating vs blank, Day 1, pH 2-3 [2] | Odor rating vs blank, Day 1, pH 4-5 [2] | Odor rating vs blank, Day 2, pH 2-3 [2] | Odor rating vs blank, Day 2, pH 4-5 [2] | Odor rating vs blank, Day 3, pH 2-3 [2] | Odor rating vs blank, Day 3, pH 4-5 [2] | Odor rating vs blank, Day 4, pH 2-3 [2] | Odor rating vs blank, Day 4, pH 4-5 [2] | odor-reducing effect on permanently waved hair, in words [3] | odor-reducing effect, in words ([1]; lowest concentrations in rinse-off products, applied immediately after permanent wave treatment or up to four days later) | odor-reducing action (efficacy), in words [2] |
| --- | --- | --- | --- | --- | --- | --- | --- | --- | --- | --- | --- | --- | --- | --- | --- | --- | --- | --- | --- |
| CC(=O)C(=O)[O-].CC(=O)C(=O)[O-].[Zn+2] [Zn pyruvate] | ∘ ∘ ∘ | ∘ + ∘ | ∘ ∘ ∘ | + ∘ + | ∘ ∘ ∘ | ∘ + + | ∘ ∘ ∘ | + + + | ∘ + ∘ | + + + | ∘ ∘ ∘ | + + + | ∘ ∘ ∘ | ∘ + + | ∘ ∘ ∘ | + + + | – | – | – |
| O=CC(=O)[O-].O=CC(=O)[O-].[Zn+2] [Zn glyoxylate] | ∘ ∘ ∘ | ∘ + + | ∘ ∘ ∘ | + ∘ + | ∘ ∘ + | + + ∘ | ∘ ∘ + | ∘ + + | ∘ + + | + ∘ ∘ | ∘ ∘ ∘ | ∘ + + | ∘ ∘ + | + ∘ + | ∘ ∘ + | + + ∘ | – | – | – |
| CC(=O)CCC(=O)[O-].[Na+] [Na levulinate] | + + + | + ∘ + | + + ∘ | + ∘ ∘ | ∘ + + | + ∘ ∘ | ∘ ∘ + | + ∘ ∘ | + + + | + ∘ + | + + + | + ∘ + | ∘ + + | + + ∘ | + + + | + + + | – | – | – |
| O=C([O-])CC(O)(CC(=O)[O-])C(=O)[O-].O=C([O-])CC(O)(CC(=O)[O-])C(=O)[O-].[Zn+2].[Zn+2].[Zn+2] [Trizinc dicitrate, trizinc dicitrate] | ∘ ∘ ∘ | ∘ ∘ + | + ∘ ∘ | ∘ + + | ∘ ∘ + | ∘ + + | ∘ ∘ + | ∘ + + | + ∘ ∘ | ∘ + + | ∘ + ∘ | ∘ + + | ∘ ∘ + | ∘ + + | ∘ + ∘ | + + + | – | – | – |
| zinc levulinate [Zn levulinate] | + + + | ++ ++ and ++ | + + + | + + + | + + + | + + + | + + + | ++ + ++ | + + + | ++ ++ and ++ | + + + | + + ++ | + + + | ++ ++ and ++ | + + + | + ++ and ++ | much more intense than that of any other zinc compound | drastic odor-reducing effect | unique in the entire pH range tested |
| CC(=O)CCC(=O)O [levulinic acid, 4-oxopentanoic acid] | – | – | – | – | – | – | – | – | – | – | – | – | – | – | – | – | effective odor reducer | – | some odor-reducing action in strong acids |
| CC(=O)C(=O)[O-].[Na+] [Na pyruvate] | ∘∘ + | ∘ + + | ∘ + + | ∘ + + | ∘ + + | ∘ + + | ∘ + + | ∘ + + | + ∘ + | ∘ ∘ + | ∘ + ∘ | ∘ + ∘ | ∘ + + | ∘ + + | ∘ + + | + + ∘ | – | – | – |
| O=CC(=O)[O-].[Na+] [Na glyoxylate] | ∘ ∘ ∘ | ∘ ∘ ∘ | + ∘ + | + ∘ + | ∘ ∘ + | + + ∘ | ∘ + + | ∘ + + | ∘ + + | ∘ + ∘ | + + ∘ | + + ∘ | ∘ ∘ + | ∘ + + | ∘ + + | + ∘ + | – | – | – |
